# Laboratory results reported in patent publication US5439902A, “14α, 16α-ethanoand 14α, 16α-etheno-estratrienes” (Schering Aktiengesellschaft, priority 1991, dated 1995).
# Assays:
# Estrogen-receptor = Estrogen-receptor test (KF); type: binding; conditions: estradiol = 1.0
# vaginal epithelium = assay: Allen-Doisy test (vaginal smears, threshold at which 50% of the animals reach stage 3); type: in vivo, ovariectomized rats; conditions: for Allen-Doisy Test p.o. [ED50] / Allen-Doisy Test s.c. [ED50]: ovariectomized rats, one-time administration d1, smears d3-d5
# Description: In the Allen-Doisy test, an evaluation of vaginal smears in ovariectomized rats is performed on days 3-5 (d3-d5) after the one-time administration on day 1 (d1) of the test substance. The following cycle stages are distinguished:
# 1=diestrus (leukocytes and nucleated epithelial cells),
# 2=proestrus (nucleated epithelial cells),
# 3=estrus (denucleated horny plaques),
# 4=metestrus (denucleated horny plaques, leukocytes, epithelial cells).
# After oral or subcutaneous administration, estrogenically active substances result in the proliferation of the vaginal epithelium and the hornification of superficial cell layers. As a threshold value, that amount of an estrogen is indicated in which 50% of the animals reach stage 3. Further, estrogens cause an increase of the uterus weight.
Compound,Estrogen-receptor test (KF) (Estrogen-receptor),Allen-Doisy Test p.o. [ED50] (vaginal epithelium),"threshold value (50% of the animals reach stage 3) (vaginal epithelium; s.c., rat, FIG. 1, threshold already exceeded after only 0.3 μg)",Allen-Doisy Test s.c. [ED50] (vaginal epithelium; s.c.)
"C[C@]12CC[C@@H]3c4ccc(O)cc4CC[C@H]3[C@@H]1CC[C@@H]2O [Estradiol, reference compound]",1.0,–,–,–
"C[C@]12CC[C@@H]3c4ccc(O)cc4CC[C@H]3[C@@]13C=C[C@H](C3)[C@H]2O [14α,16α-etheno-estra-1,3,5(10)-triene-3,17α-diol]",1.5,–,–,–
"C[C@]12CC[C@@H]3c4ccc(O)cc4CC[C@H]3[C@@H]1CC[C@H]2O [17α-Estradiol, reference compound]",46.0,–,–,–
"C[C@]12CC[C@@H]3c4ccc(O)cc4CC[C@H]3[C@@]13CC[C@H](C3)[C@H]2O [14α,16α-ethano-estra-1,3,5(10)-triene-3,17α-diol]",0.5,3-10 μg/animal/day,< 0.3 µg,0.1-0.3 μg/animal/day
"C[C@]12CC[C@@H]3c4ccc(O)cc4CC[C@H]3[C@@]13CC[C@H](C3)[C@@H]2O [14α,16α-ethano-estra-1,3,5(10)-triene-3,17β-diol]",1.0,1.0 μg/animal/day,–,0.1-0.3 μg/animal/day
